Assay results: patent publication US20240180880A1, “METHODS OF USING EHMT2 INHIBITORS IN TREATING OR PREVENTING BLOOD DISORDERS” (Epizyme, Inc., priority 2017, published 2024)
Where two headings read alike, the source gives them in different places.

System: 284 cell lines
Experiment: cells
Procedure: A screen of 284 cell lines to assess the antiproliferative effect of EHMT2 inhibition was conducted by treating cell lines in 384-well format with a half-log step dilutions of Compound 205 over 10 concentrations with a maximum concentration of 0.1% v/v DMSO. Cells were plated on Day 0 and treated with compound on Day 1. Culture medium was replaced on day 7 and cells redosed. After 10-day incubation, cells were fixed and stained with nuclear dye. Automated fluorescence microscopy was carried out using a Molecular Devices ImageXpress Micro XL high-content imager, and images were collected with a 4× objective. 16-bit TIFF images were acquired and analyzed with MetaXpress 5.1.0.41 software. Cell proliferation was measured by the fluorescence intensity of the incorporated nuclear dye. Cell count IC50 is the test compound concentration at 50% of maximal response of the untreated control.

Measured: IC50

CNc1cc(C)nc(Nc2ccc(OC)c(OCCCN3CCCC3)c2)n1 [Compound 205]
0.1 to 1 µM: Homo sapiens, CHP-212, read-out: Cell Count IC50, CHP-212, Central Nervous System, Neuroblastoma | Homo sapiens, Ca-Ski, read-out: Cell Count IC50, Ca Ski, Female GU, Cervix | Homo sapiens, DMS-53, read-out: Cell Count IC50, DMS53, Lung, SCLC | Homo sapiens, LNCaP, read-out: Cell Count IC50, LNCaP, Prostate | Homo sapiens, MV4-11, read-out: Cell Count IC50, MV-4-11, Hematopoietic, Leukemia | Homo sapiens, NCI-H69, read-out: Cell Count IC50, NCI-H69, Lung, SCLC
1 to 10 µM: C32TG, read-out: Cell Count IC50, C32TG, Skin, Melanoma | CML-T1, read-out: Cell Count IC50, CML-T1, Hematopoietic, Leukemia | D341 Med, read-out: Cell Count IC50, D341 Med, Central Nervous System, Medulloblastoma | HUH-6-clone5, read-out: Cell Count IC50, HUH-6 Clone 5, Liver | Homo sapiens, 22Rv1, read-out: Cell Count IC50, 22Rv1, Prostate | Homo sapiens, 647-V, read-out: Cell Count IC50, 647-V, Bladder | Homo sapiens, 769-P, read-out: Cell Count IC50, 769-P, Kidney | Homo sapiens, A101D, read-out: Cell Count IC50 | Homo sapiens, A 172, read-out: Cell Count IC50, A172, Central Nervous System, Glioma | Homo sapiens, A498, read-out: Cell Count IC50, A498, Kidney | Homo sapiens, A704, read-out: Cell Count IC50, A-704, Kidney | Homo sapiens, A2058, read-out: Cell Count IC50, A2058, Skin, Melanoma | Homo sapiens, A-375, read-out: Cell Count IC50, A375, Skin, Melanoma | Homo sapiens, A-427, read-out: Cell Count IC50, A427, Lung, NSCLC | Homo sapiens, A-431, read-out: Cell Count IC50, A431, Skin, Head and Neck | Homo sapiens, ACHN, read-out: Cell Count IC50, ACHN, Kidney | Homo sapiens, ARH-77, read-out: Cell Count IC50, ARH-77, Hematopoietic, Myeloma | Homo sapiens, ASPC1, read-out: Cell Count IC50, AsPC-1, Pancreas | Homo sapiens, BHT-101, read-out: Cell Count IC50, BHT-101, Endocrine, Thyroid | Homo sapiens, BT-474, read-out: Cell Count IC50, BT474, Breast | Homo sapiens, BV-173, read-out: Cell Count IC50, BV-173, Hematopoietic, Leukemia | Homo sapiens, BXPC-3, read-out: Cell Count IC50, BxPC-3, Pancreas | Homo sapiens, CA46, read-out: Cell Count IC50, CA46, Hematopoietic, Lymphoma | Homo sapiens, CAKI-1, read-out: Cell Count IC50, Caki-1, Kidney | Homo sapiens, CAKI-2, read-out: Cell Count IC50, Caki-2, Kidney | Homo sapiens, CAL-27, read-out: Cell Count IC50, Cal 27, Head and Neck | Homo sapiens, CAMA-1, read-out: Cell Count IC50, CAMA-1, Breast | Homo sapiens, CCF-STTG1, read-out: Cell Count IC50, CCF-STTG1, Central Nervous System, Glioma | Homo sapiens, COLO 201, read-out: Cell Count IC50, Colo 201, Colon | Homo sapiens, COLO 205, read-out: Cell Count IC50, Colo 205, Colon | Homo sapiens, COLO-829, read-out: Cell Count IC50, COLO 829, Skin, Melanoma | Homo sapiens, COR-L23, read-out: Cell Count IC50, COR-L23, Lung, NSCLC | Homo sapiens, COR-L105, read-out: Cell Count IC50, COR-L105, Lung, NSCLC | Homo sapiens, Caov-3, read-out: Cell Count IC50, CaOV3, Female GU, Ovary | Homo sapiens, D283 Med, read-out: Cell Count IC50, D283 Med, Central Nervous System, Medulloblastoma | Homo sapiens, DBTRG-05MG, read-out: Cell Count IC50, DBTRG-05MG, Central Nervous System, Glioma | Homo sapiens, DMS-114, read-out: Cell Count IC50, DMS114, Lung, SCLC | Homo sapiens, DOHH-2, read-out: Cell Count IC50, DOHH-2, Hematopoietic, Lymphoma | Homo sapiens, Daoy, read-out: Cell Count IC50, Daoy, Central Nervous System, Medulloblastoma | Homo sapiens, Daudi, read-out: Cell Count IC50, Daudi, Hematopoietic, Lymphoma | Homo sapiens, Detroit 562, read-out: Cell Count IC50, Detroit 562, Head and Neck | Homo sapiens, DoTc2-4510, read-out: Cell Count IC50, DoTc2 4510, Female GU, Cervix | Homo sapiens, FaDu, read-out: Cell Count IC50, FaDu, Head and Neck | Homo sapiens, G-361, read-out: Cell Count IC50, G-361, Skin, Melanoma | Homo sapiens, G-402, read-out: Cell Count IC50, G-402, Kidney | Homo sapiens, HEC-1-A, read-out: Cell Count IC50, HEC-1-A, Female GU, Uterus | Homo sapiens, HPAF-II, read-out: Cell Count IC50, HPAF-II, Pancreas | Homo sapiens, HT1197, read-out: Cell Count IC50, HT-1197, Bladder | Homo sapiens, HT-29, read-out: Cell Count IC50, HT-29, Colon | Homo sapiens, Hs 294T, read-out: Cell Count IC50, Hs 294T, Skin, Melanoma | Homo sapiens, Hs 683, read-out: Cell Count IC50, Hs 683, Central Nervous System, Glioma | Homo sapiens, Hs 695T, read-out: Cell Count IC50, Hs 695T, Skin, Melanoma | Homo sapiens, HuCCT-1, read-out: Cell Count IC50, HuCCT1, Liver | Homo sapiens, HuP-T4, read-out: Cell Count IC50, HuP-T4, Pancreas | Homo sapiens, HuTu80, read-out: Cell Count IC50, HuTu 80, Duodenum | Homo sapiens, JeKo-1, read-out: Cell Count IC50, JeKo-1, Hematopoietic, Lymphoma | Homo sapiens, Jurkat, read-out: Cell Count IC50, Jurkat, Hematopoietic, Leukemia | Homo sapiens, K562, read-out: Cell Count IC50, K562, Hematopoietic, Leukemia | Homo sapiens, KATO III, read-out: Cell Count IC50, KATO III, Stomach | Homo sapiens, LS174T, read-out: Cell Count IC50, LS-174T, Colon | Homo sapiens, LS-123, read-out: Cell Count IC50, LS123, Colon | Homo sapiens, LS-411N, read-out: Cell Count IC50, LS411N, Colon | Homo sapiens, LS-513, read-out: Cell Count IC50, LS513, Colon | Homo sapiens, MDA-MB-231, read-out: Cell Count IC50, MDA MB 231, Breast | Homo sapiens, MDA-MB-453, read-out: Cell Count IC50, MDA MB 453, Breast | Homo sapiens, MDA-MB-468, read-out: Cell Count IC50, MDA MB 468, Breast | Homo sapiens, MEG-01, read-out: Cell Count IC50, MEG01, Hematopoietic, Leukemia | Homo sapiens, MES-SA, read-out: Cell Count IC50, MES-SA, Soft & Connective Tissue, Sarcoma | Homo sapiens, MG-63, read-out: Cell Count IC50, MG-63, Bone, Osteosarcoma | Homo sapiens, MHH-PREB-1, read-out: Cell Count IC50, MHH-PREB-1, Hematopoietic, Leukemia | Homo sapiens, MIA PaCa-2, read-out: Cell Count IC50, Mia PaCa-2, Pancreas | Homo sapiens, MOLT-3, read-out: Cell Count IC50, MOLT-3, Hematopoietic, Leukemia | Homo sapiens, MOLT-16, read-out: Cell Count IC50, MOLT-16, Hematopoietic, Leukemia | Homo sapiens, MeWo, read-out: Cell Count IC50, MeWo, Skin, Melanoma | Homo sapiens, NALM-6, read-out: Cell Count IC50, NALM-6, Hematopoietic, Leukemia | Homo sapiens, NCI-H446, read-out: Cell Count IC50, NCIH446, Lung, SCLC
0.01 to 0.1 µM: Homo sapiens, A204, read-out: Cell Count IC50, A204, Soft & Connective Tissue, Sarcoma | Homo sapiens, BFTC-905, read-out: Cell Count IC50, BFTC-905, Bladder
> 10 µM: BM-1604, read-out: Cell Count IC50, BM-1604, Prostate | CEM/C1, read-out: Cell Count IC50, CEM-C1, Hematopoietic, Leukemia | Homo sapiens, 639-V, read-out: Cell Count IC50, 639-V, Bladder | Homo sapiens, 786-0, read-out: Cell Count IC50, 786-O, Kidney | Homo sapiens, A253, read-out: Cell Count IC50, A-253, Head and Neck | Homo sapiens, A549, read-out: Cell Count IC50, A549, Lung, NSCLC | Homo sapiens, A673, read-out: Cell Count IC50, A-673, Soft & Connective Tissue, Sarcoma | Homo sapiens, AN3-CA, read-out: Cell Count IC50, AN3 CA, Female GU, Uterus | Homo sapiens, BE(2)-C, read-out: Cell Count IC50, BE(2)C, Central Nervous System, Neuroblastoma | Homo sapiens, BPH-1, read-out: Cell Count IC50, BPH1, Prostate | Homo sapiens, BT-20, read-out: Cell Count IC50, BT20, Breast | Homo sapiens, BT-549, read-out: Cell Count IC50, BT-549, Breast | Homo sapiens, BeWo, read-out: Cell Count IC50, BeWo, Placenta | Homo sapiens, C-4-II, read-out: Cell Count IC50, C-4 II, Female GU, Cervix | Homo sapiens, C-33-A, read-out: Cell Count IC50, C-33A, Female GU, Cervix | Homo sapiens, CAL-62, read-out: Cell Count IC50, CAL-62, Endocrine, Thyroid | Homo sapiens, CAPAN-1, read-out: Cell Count IC50, Capan-1, Pancreas | Homo sapiens, CCRF-CEM, read-out: Cell Count IC50, CCRFCEM, Hematopoietic, Leukemia | Homo sapiens, CFPAC-1, read-out: Cell Count IC50, CFPAC-1, Pancreas | Homo sapiens, CGTH-W-1, read-out: Cell Count IC50, CGTH-W-1, Endocrine, Thyroid | Homo sapiens, CHL-1, read-out: Cell Count IC50, CHL-1, Skin, Melanoma | Homo sapiens, COLO 320DM, read-out: Cell Count IC50, Colo 320DM, Colon | Homo sapiens, COLO-320-HSR, read-out: Cell Count IC50, Colo 320 HSR, Colon | Homo sapiens, Calu-1, read-out: Cell Count IC50, Calu1, Lung, NSCLC | Homo sapiens, Calu-6, read-out: Cell Count IC50, Calu6, Lung, NSCLC | Homo sapiens, Capan-2, read-out: Cell Count IC50, Capan-2, Pancreas | Homo sapiens, ChaGo-K-1, read-out: Cell Count IC50, ChaGoK1, Lung, NSCLC | Homo sapiens, DLD-1, read-out: Cell Count IC50, DLD-1, Colon | Homo sapiens, DU-145, read-out: Cell Count IC50, DU145, Prostate | Homo sapiens, EFM-19, read-out: Cell Count IC50, EFM-19, Breast | Homo sapiens, G292, read-out: Cell Count IC50, G-292, clone A141B1, Bone, Osteosarcoma | Homo sapiens, G-401, read-out: Cell Count IC50, G-401, Kidney | Homo sapiens, HCT-8, read-out: Cell Count IC50, HCT-8, Colon | Homo sapiens, HCT-15, read-out: Cell Count IC50, HCT-15, Colon | Homo sapiens, HCT-116, read-out: Cell Count IC50, HCT-116, Colon | Homo sapiens, HEL 92.1.7, read-out: Cell Count IC50, HEL-92-1-7, Hematopoietic, Leukemia | Homo sapiens, HMCB, read-out: Cell Count IC50, HMCB, Skin, Melanoma | Homo sapiens, HT-1080, read-out: Cell Count IC50, HT-1080, Soft & Connective Tissue, Sarcoma | Homo sapiens, HT-1376, read-out: Cell Count IC50, HT1376, Bladder | Homo sapiens, HeLa, read-out: Cell Count IC50, HeLa, Female GU, Cervix | Homo sapiens, HepG2, read-out: Cell Count IC50, HepG2, Liver | Homo sapiens, Hs746T, read-out: Cell Count IC50, HS 746T, Stomach | Homo sapiens, Hs-578T, read-out: Cell Count IC50, Hs 578T, Breast | Homo sapiens, JEG-3, read-out: Cell Count IC50, JEG-3, Placenta | Homo sapiens, JIYOYE, read-out: Cell Count IC50, Jiyoye, Hematopoietic, Lymphoma | Homo sapiens, KU812, read-out: Cell Count IC50, KU812, Hematopoietic, Leukemia | Homo sapiens, LS-1034, read-out: Cell Count IC50, LS1034, Colon | Homo sapiens, M059J, read-out: Cell Count IC50, M059J, Central Nervous System, Glioma | Homo sapiens, MC-IXC, read-out: Cell Count IC50, MC-IXC, Central Nervous System, Neuroblastoma | Homo sapiens, MCF7, read-out: Cell Count IC50, MCF7, Breast | Homo sapiens, MDA-MB-415, read-out: Cell Count IC50, MDA-MB-415, Breast | Homo sapiens, MDA-MB-436, read-out: Cell Count IC50, MDA-MB-436, Breast | Homo sapiens, ME-180, read-out: Cell Count IC50, ME-180, Female GU, Cervix | Homo sapiens, Malme-3M, read-out: Cell Count IC50, MALME3M, Skin, Melanoma | Homo sapiens, NCI-H292, read-out: Cell Count IC50, NCI-H292, Lung, NSCLC | Homo sapiens, NCI-H295R, read-out: Cell Count IC50, NCI-H295R, Endocrine, Adrenal gland | Homo sapiens, NCI-H441, read-out: Cell Count IC50, NCIH441, Lung, NSCLC | Homo sapiens, NCI-H460, read-out: Cell Count IC50, NCI-H460, Lung, NSCLC
